Experimental data as given in US20060035932A1, “N-aryl piperidine compounds” (Propharmacon, Inc., priority 2004, published 2006).

The compounds below were run against T1, binding of recombinant macrophage-tropic strain JR-FL gp120 to immobilized recombinant CD4 (Homo sapiens, UniProt P01730) (assay: gp120/CD4 binding assay (DELFIA competition assay, europium-labeled gp120, immobilized CD4)). Conditions: control substances used in optimizing the binding assay.
T1 construct: human CD4 (comprised of amino acids 1-371); made in house; host or cells: Sf9 insect cells, baculovirus vector pAcGP67
Set-up: species or system HIV (strain JR-FL) gp120; human CD4
Description: Coding sequences for gp120 (macrophage-tropic strain JR-FL) and human CD4 (comprised of amino acids 1-371) were sub-cloned into the commercial baculovirus expression vector pAcGP67 (Pharmingen, San Diego, Calif.). The recombinant vectors were then transfected into Sf9 insect cell monolayers using the Baculogold™ transfection system. Clones were isolated by the method of limited dilution.
For large-scale production, cell culture was scaled up in 8-liter spinner flasks of Sf9 cells adapted to serum-free growth conditions, then infected by baculovirus using an MOI of 5 and the cell supernatant was harvested 72 hours later. The yields of recombinant protein expressed for both proteins were similar; 2-5 μg/ml (micrograms per milliliter). Recombinant CD4 protein was immunopurified using an affinity-column of immobilized Anti-CD4 D1 mAb Leu3a (Dalgleish, A. G., et al., Lancet, 2:1047-1050 1987) and gp120 protein was immunopurified using a resin coupled with Propharmacon monoclonal antibody PPC3G6 produced in-house (mouse IgG2) against Sf9-produced gp120. Protein purity and molecular weight were assessed using reduced and non-reduced SDS PAGE.
The identification of inhibitors was carried out by a competition assay utilizing recombinant macrophage-tropic strain JR-FL gp120, which competes with a prospective inhibitor to bind to immobilized recombinant CD4. The amount of gp12O binding to CD4 was quantitated by DELFIA “Dissociation Enhanced Lanthanide Fluoroimmunoassay” (Paterson, N., et al., Ann. Clin Biochem., 22, 606-611, 1985), having previously labeled the gp120 with a commercial europium chelate (Wallac Oy, Turku, Finland). The final readout uses time-resolved fluorescence to quantitate the amount of dissociated europium metal present. Binding of labeled gp120 was saturable and yielded an IC50 of 3 nM, which approximates literature values (Lasky, L. A., et al., Cell, 50, 975-985). In addition, the binding of gp120 was inhibited by Leu3a with an IC50 of 2 μg/ml. […] The assay is optionally adapted to 384-well format for screening purposes.

| Compound | IC50, inhibition of binding of gp120 to immobilized CD4 |
| --- | --- |
| CC(C)CCC[C@@H](C)[C@H]1CC[C@H]2[C@@H]3CC[C@H]4C[C@@H](CCC=C(c5cc(Cl)c(O)c(C(=O)O)c5)c5cc(Cl)c(O)c(C(=O)O)c5)CC[C@]4(C)[C@H]3CC[C@]12C [cosalane, reference compound] | 4.3 µg/mL |

Same assay, conditions: control substances used in optimizing the binding assay; read-out: IC50, inhibition of binding of gp120 to immobilized CD4 (converted)

| Compound | IC50 |
| --- | --- |
| O=C(O)C1=CC(=C(c2ccc(O)c(C(=O)O)c2)c2ccc(O)c(C(=O)O)c2)C=CC1=O [aurintricarboxylic acid, reference compound] | 1.18 µM |

Same assay, conditions: gp120/CD4 binding assay; read-out: Activity (IC50 level in the gp120/CD4 binding assay)

| Compound | IC50 |
| --- | --- |
| O=C(O)[C@H](Cc1ccccc1)NS(=O)(=O)c1cnc(N2CCC(CCCCCC3CCN(S(=O)(=O)c4cc(Br)c(Cl)s4)CC3)CC2)c(Br)c1 | < 1 µM |
| O=C(O)CN(CCc1ccc(F)cc1)S(=O)(=O)c1cnc(N2CCC(CCCC3CCN(S(=O)(=O)c4cc(Br)c(Cl)s4)CC3)CC2)c(Br)c1 | < 1 µM |
| O=C(NCCCCC(NS(=O)(=O)c1cnc(N2CCC(CCCC3CCN(S(=O)(=O)c4cc(Br)c(Cl)s4)CC3)CC2)c(Br)c1)C(=O)O)OCc1ccccc1Cl (stereo not shown) | < 1 µM |
| O=C(O)[C@H](Cc1ccccc1)NS(=O)(=O)c1cnc(N2CCC(CCCCCCCC3CCN(S(=O)(=O)c4cc(Br)c(Cl)s4)CC3)CC2)c(Br)c1 | < 1 µM |
| O=C(O)CC1Cc2ccccc2CN1S(=O)(=O)c1cnc(N2CCC(CCCCC3CCN(S(=O)(=O)c4cc(Br)c(Cl)s4)CC3)CC2)c(Br)c1 (stereo not shown) | < 1 µM |
| O=C(O)C1(NS(=O)(=O)c2cnc(N3CCC(CCCC4CCN(S(=O)(=O)c5cc(Br)c(Cl)s5)CC4)CC3)c(Br)c2)CCCCC1 | < 1 µM |
| O=C(O)[C@H](Cc1ccccc1)NS(=O)(=O)c1cnc(N2CCC(CCCCC3CCN(S(=O)(=O)c4cc(Br)c(Cl)s4)CC3)CC2)c(C(F)(F)F)c1 | 1 to 10 µM |
| O=C(O)C[C@@H]1CCCN1S(=O)(=O)c1cnc(N2CCC(CCCC3CCN(S(=O)(=O)c4cc(Br)c(Cl)s4)CC3)CC2)c(Br)c1 | 1 to 10 µM |
| O=C(O)[C@H](Cc1ccc(Cl)cc1)NS(=O)(=O)c1cnc(N2CCC(CCCCCC3CCN(S(=O)(=O)c4cc(Br)c(Cl)s4)CC3)CC2)c(Br)c1 | 1 to 10 µM |
| O=C(O)[C@H](Cc1ccccc1)NS(=O)(=O)c1ccc(N2CCC(CCCC3CCN(S(=O)(=O)c4cc(Br)c(Cl)s4)CC3)CC2)c(Cl)c1 | 1 to 10 µM |
| CSCC[C@H](NS(=O)(=O)c1ccc(N2CCC(CCCC3CCN(S(=O)(=O)c4ccc(C(C)(C)C)cc4)CC3)CC2)c(Cl)c1)C(=O)O | 1 to 10 µM |
| O=C(O)[C@@H]1CC[C@H](NS(=O)(=O)c2ccc(N3CCC(CCCC4CCN(S(=O)(=O)c5ccc(F)cc5)CC4)CC3)c(Cl)c2)C1 | > 10 µM |
| O=C(NO)[C@H]1CC[C@H](NS(=O)(=O)c2ccc(N3CCC(CCCC4CCN(S(=O)(=O)c5cc(Br)c(Cl)s5)CC4)CC3)c(Cl)c2)C1 | > 10 µM |
| O=S(=O)(c1cnc(N2CCC(CCCC3CCN(S(=O)(=O)c4c(Cl)ccc5nonc45)CC3)CC2)c(Br)c1)N1CCCNCC1 | > 10 µM |
